Results reported in ChEMBL document CHEMBL5518186, “Discovery of the cereblon-recruiting tubulin PROTACs effective in overcoming Taxol resistance in vitro and in vivo” (Eur J Med Chem, 2024).
Active and inactive are the calls of the source. The calls are words filed in the database; no cut-off is given here.

Key:
[1] = tested on: U-937; experiment: Antiproliferative activity against human U-937 cells incubated for 72 hrs; assay type: functional, cell-based; settings: U-937, 72 h
[2] = tested on: HeLa; experiment: Antiproliferative activity against human HeLa cells incubated for 72 hrs; assay type: functional, cell-based
[3] = tested on: HepG2; experiment: Antiproliferative activity against human HepG2 cells incubated for 72 hrs; assay type: functional, cell-based; settings: HepG2, 72 h
[4] = tested on: A549; experiment: Antiproliferative activity against human A549 cells incubated for 72 hrs; assay type: functional, cell-based; settings: A549, 72 h
[5] = tested on: MCF7; experiment: Antiproliferative activity against human MCF7 cells incubated for 72 hrs; assay type: functional, cell-based; settings: MCF7, 72 h
[6] = tested on: MGC-803; experiment: Antiproliferative activity against human MGC-803 cells incubated for 72 hrs; assay type: functional, cell-based; settings: MGC-803, 72 h
[7] = biological target: T1, Protein cereblon/Tubulin beta-3 chain (Homo sapiens, UniProt Q13509+Q96SW2); experiment: Protac activity at CRBN/beta3-tubulin in human A549 cells assessed as reduction in beta3-tubulin level incubated for 48 hrs by immunoblotting analysis; assay type: cell-based
[8] = biological target: T2, Protein cereblon-alpha tubulin (Homo sapiens) (UniProt P0DPH7+P68366+Q71U36+P68363+Q9BQE3+Q6PEY2+A6NHL2+Q9NY65+Q96SW2); experiment: Protac activity at CRBN/alpha-tubulin in human A549 cells assessed as reduction in alpha-tubulin level at 0.01 to 1 uM incubated for 48 hrs by immunoblotting analysis; assay type: cell-based; settings: dose 0.01-1 µM
[9] = biological target: Protein cereblon/Tubulin beta; experiment: (§1) Protac activity at CRBN/beta-tubulin in human A549 cells assessed as reduction in beta-tubulin level incubated for 48 hrs by immunoblotting analysis; assay type: cell-based
[10] = biological target: T3, Protein cereblon/Tubulin beta (Homo sapiens) (UniProt P68371+Q9H4B7+Q13509+P04350+Q3ZCM7+P07437+Q13885+Q9BVA1+Q9BUF5+Q96SW2+A6NNZ2); experiment: as §1; assay type: cell-based
[11] = biological target: T3, Protein cereblon/Tubulin beta (Homo sapiens); experiment: Protac activity at CRBN/beta-tubulin in human A549 cells assessed as reduction in beta-tubulin level at 0.01 to 1 uM incubated for 48 hrs by immunoblotting analysis; assay type: cell-based; settings: dose 0.01-1 µM
[12] = biological target: T2, Protein cereblon-alpha tubulin (Homo sapiens); experiment: (§2) Protac activity at CRBN/alpha-tubulin in human A549 cells assessed as reduction in alpha-tubulin level incubated for 48 hrs by immunoblotting analysis; assay type: cell-based
[13] = biological target: Protein cereblon/Tubulin beta; experiment: (§3) Protac activity at CRBN/beta-tubulin in human A549/Taxol cells assessed as reduction in beta-tubulin level incubated for 48 hrs by immunoblotting analysis; assay type: cell-based
[14] = biological target: T3, Protein cereblon/Tubulin beta (Homo sapiens); experiment: as §3; assay type: cell-based
[15] = biological target: Protein cereblon-alpha tubulin; experiment: (§4) Protac activity at CRBN/alpha-tubulin in human A549/Taxol cells assessed as reduction in alpha-tubulin level incubated for 48 hrs by immunoblotting analysis; assay type: cell-based
[16] = biological target: T2, Protein cereblon-alpha tubulin (Homo sapiens); experiment: as §4; assay type: cell-based
[17] = biological target: T1, Protein cereblon/Tubulin beta-3 chain; experiment: Protac activity at CRBN/beta3-tubulin in human A549/Taxol cells assessed as reduction in beta3-tubulin level incubated for 48 hrs by immunoblotting analysis; assay type: cell-based
[18] = biological target: T1, Protein cereblon/Tubulin beta-3 chain; experiment: Protac activity at CRBN/beta3-tubulin in human A549 cells assessed as reduction in beta3-tubulin level at 0.01 to 1 uM incubated for 48 hrs by immunoblotting analysis; assay type: cell-based; settings: dose 0.01-1 µM
Target sequence in this assay (Q13509 whole entry, looked up): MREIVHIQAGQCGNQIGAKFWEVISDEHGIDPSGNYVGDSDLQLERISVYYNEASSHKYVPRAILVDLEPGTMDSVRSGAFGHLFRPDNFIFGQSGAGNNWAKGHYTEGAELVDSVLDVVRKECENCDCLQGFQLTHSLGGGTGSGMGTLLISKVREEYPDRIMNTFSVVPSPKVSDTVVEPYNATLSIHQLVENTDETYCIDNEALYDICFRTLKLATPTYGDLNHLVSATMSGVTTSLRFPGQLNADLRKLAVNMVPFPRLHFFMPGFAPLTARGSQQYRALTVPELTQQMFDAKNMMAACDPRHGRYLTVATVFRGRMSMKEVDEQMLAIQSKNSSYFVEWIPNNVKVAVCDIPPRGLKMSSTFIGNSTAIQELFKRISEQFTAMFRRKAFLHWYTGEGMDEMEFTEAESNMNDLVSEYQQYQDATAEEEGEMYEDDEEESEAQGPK
Target sequence in this assay (Q96SW2 whole entry, looked up): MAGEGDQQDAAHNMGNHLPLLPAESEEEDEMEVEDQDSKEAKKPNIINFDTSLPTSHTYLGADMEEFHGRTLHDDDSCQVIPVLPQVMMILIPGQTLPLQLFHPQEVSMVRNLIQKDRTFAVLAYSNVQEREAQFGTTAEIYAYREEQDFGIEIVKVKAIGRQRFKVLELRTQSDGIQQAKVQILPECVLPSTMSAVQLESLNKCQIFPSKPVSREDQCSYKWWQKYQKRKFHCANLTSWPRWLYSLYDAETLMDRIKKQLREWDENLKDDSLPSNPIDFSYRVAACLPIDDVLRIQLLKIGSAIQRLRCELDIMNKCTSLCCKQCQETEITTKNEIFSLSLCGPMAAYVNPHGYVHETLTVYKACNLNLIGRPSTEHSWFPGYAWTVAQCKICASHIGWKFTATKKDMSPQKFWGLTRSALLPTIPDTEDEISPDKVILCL

[19] = biological target: T4, Estrogen receptor (Homo sapiens) (UniProt P03372); experiment: Induction of ER degradation (unknown origin)
T4 sequence (whole entry): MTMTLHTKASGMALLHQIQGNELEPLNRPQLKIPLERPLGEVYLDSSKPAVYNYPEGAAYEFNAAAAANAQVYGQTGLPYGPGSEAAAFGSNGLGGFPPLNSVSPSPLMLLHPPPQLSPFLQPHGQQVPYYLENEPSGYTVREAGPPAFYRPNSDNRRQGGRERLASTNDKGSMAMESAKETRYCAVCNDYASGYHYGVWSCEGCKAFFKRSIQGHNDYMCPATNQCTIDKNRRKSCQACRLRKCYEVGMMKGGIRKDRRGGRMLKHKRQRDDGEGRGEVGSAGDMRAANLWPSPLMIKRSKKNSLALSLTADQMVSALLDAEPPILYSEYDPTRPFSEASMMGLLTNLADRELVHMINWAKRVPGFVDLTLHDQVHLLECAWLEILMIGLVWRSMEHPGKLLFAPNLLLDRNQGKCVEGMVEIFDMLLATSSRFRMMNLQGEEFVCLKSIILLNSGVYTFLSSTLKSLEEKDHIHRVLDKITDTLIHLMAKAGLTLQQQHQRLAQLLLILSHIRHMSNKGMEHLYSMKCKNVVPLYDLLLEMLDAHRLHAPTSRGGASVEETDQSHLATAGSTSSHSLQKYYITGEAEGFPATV

[20] = biological target: Protein cereblon-alpha tubulin; experiment: as §2; assay type: cell-based

| Compound | IC50 [1] | IC50 [2] | IC50 [3] | IC50 [4] | IC50 [5] | IC50 [6] | also measured |
| --- | --- | --- | --- | --- | --- | --- | --- |
| COc1ccc(/C=C\c2cc(OC)c(OC)c(OC)c2)cc1OC(=O)CCNc1cccc2c1C(=O)N(C1CCC(=O)NC1=O)C2=O (centres undefined) | > 5 µM | > 5 µM | > 5 µM | > 5 µM | > 5 µM | > 5 µM |  |
| COc1ccc(/C=C\c2cc(OC)c(OC)c(OC)c2)cc1OC(=O)CCCCCNc1cccc2c1C(=O)N(C1CCC(=O)NC1=O)C2=O (centres undefined) | 0.006 µM | 0.023 µM | 0.007 µM | 0.019 µM | 0.017 µM | 0.009 µM | Activity [7]: Dose-Dependent Effect; DC50 [7]: 0.294 µM; Activity [8]: Active; DC50 [9]: 0.165 µM; Activity [10]: Dose-Dependent Effect; Activity [11]: Active; Activity [12]: Dose-Dependent Effect; DC50 [13]: 0.052 µM; Activity [14]: Dose-Dependent Effect; DC50 [15]: 0.114 µM; Activity [16]: Dose-Dependent Effect; Activity [17]: Dose-Dependent Effect; Activity [18]: Active |
| COc1ccc(/C=C\c2cc(OC)c(OC)c(OC)c2)cc1OC(=O)CCCOCCc1cn(CCCCCC(=O)Nc2cccc3c2C(=O)N(C2CCC(=O)NC2=O)C3=O)nn1 (centres undefined) | > 5 µM | > 5 µM | 2.88 µM | 3.9 µM | 2.98 µM | 3.1 µM |  |
| COc1ccc(/C=C\c2cc(OC)c(OC)c(OC)c2)cc1OC(=O)CCCCCOCCc1cn(CCCC(=O)Nc2cccc3c2C(=O)N(C2CCC(=O)NC2=O)C3=O)nn1 (centres undefined) | > 5 µM | 1.9 µM | 2.3 µM | 1.83 µM | 2.38 µM | 1.53 µM |  |
| COc1ccc(/C=C\c2cc(OC)c(OC)c(OC)c2)cc1OC(=O)CCN1C(=O)CCC(N2Cc3c(N)cccc3C2=O)C1=O (centres undefined) | > 5 µM | > 5 µM | > 5 µM | > 5 µM | > 5 µM | > 5 µM |  |
| COc1ccc(/C=C\c2cc(OC)c(OC)c(OC)c2)cc1OC(=O)CN1C(=O)CCC(N2Cc3c(N)cccc3C2=O)C1=O (centres undefined) | > 5 µM | > 5 µM | > 5 µM | > 5 µM | > 5 µM | > 5 µM |  |
| COc1ccc(/C=C\c2cc(OC)c(OC)c(OC)c2)cc1OC(=O)CCCOCCc1cn(CCCCC(=O)Nc2cccc3c2C(=O)N(C2CCC(=O)NC2=O)C3=O)nn1 (centres undefined) | > 5 µM | > 5 µM | > 5 µM | > 5 µM | > 5 µM | > 5 µM |  |
| COc1ccc(/C=C\c2cc(OC)c(OC)c(OC)c2)cc1OC(=O)CCCN1C(=O)CCC(N2Cc3c(N)cccc3C2=O)C1=O (centres undefined) | > 5 µM | > 5 µM | > 5 µM | > 5 µM | > 5 µM | > 5 µM |  |
| COc1ccc(/C=C\c2cc(OC)c(OC)c(OC)c2)cc1OC(=O)CNc1cccc2c1C(=O)N(C1CCC(=O)NC1=O)C2=O (centres undefined) | > 5 µM | > 5 µM | > 5 µM | > 5 µM | > 5 µM | > 5 µM |  |
| O=C1CC[C@H](N2Cc3cc(N4CCN(CC5CCN(c6ccc([C@@H]7c8ccc(O)cc8CC[C@@H]7c7ccccc7)cc6)CC5)CC4)ccc3C2=O)C(=O)N1 |  |  |  |  |  |  | Activity [19]: < 89% |
| COc1ccc(/C=C\c2cc(OC)c(OC)c(OC)c2)cc1OC(=O)CCCCNc1cccc2c1C(=O)N(C1CCC(=O)NC1=O)C2=O (centres undefined) | 0.022 µM | 0.023 µM | 0.006 µM | 0.012 µM | 0.017 µM | 0.008 µM | Activity [7]: Dose-Dependent Effect; Activity [8]: Active; DC50 [9]: 0.035 µM; Activity [10]: Dose-Dependent Effect; Activity [11]: Active; DC50 [20]: 0.883 µM; Activity [12]: Dose-Dependent Effect; DC50 [13]: 0.009 µM; Activity [14]: Dose-Dependent Effect; DC50 [15]: 0.105 µM; Activity [16]: Dose-Dependent Effect; Activity [17]: Dose-Dependent Effect; DC50 [17]: 0.018 µM; Activity [18]: Active |
| COc1ccc(/C=C\c2cc(OC)c(OC)c(OC)c2)cc1OC(=O)CCCCOCCc1cn(CCCCCC(=O)Nc2cccc3c2C(=O)N(C2CCC(=O)NC2=O)C3=O)nn1 (centres undefined) | 8.59 µM | 1.31 µM | 0.242 µM | 0.466 µM | 0.417 µM | 0.195 µM |  |
| COc1ccc(/C=C\c2cc(OC)c(OC)c(OC)c2)cc1OC(=O)CCCCOCCc1cn(CCCCC(=O)Nc2cccc3c2C(=O)N(C2CCC(=O)NC2=O)C3=O)nn1 (centres undefined) | 0.8 µM | 1.51 µM | 0.213 µM | 0.374 µM | 0.263 µM | 0.175 µM |  |
| COc1ccc(/C=C\c2cc(OC)c(OC)c(OC)c2)cc1OCc1cn(CCCC(=O)Nc2cccc3c2C(=O)N(C2CCC(=O)NC2=O)C3=O)nn1 (centres undefined) | > 5 µM | > 5 µM | 1.6 µM | 2.76 µM | > 5 µM | 1.24 µM |  |
| COc1ccc(/C=C\c2cc(OC)c(OC)c(OC)c2)cc1OC(=O)CCCCOCCc1cn(CCCC(=O)Nc2cccc3c2C(=O)N(C2CCC(=O)NC2=O)C3=O)nn1 (centres undefined) | 4.32 µM | 1.27 µM | 0.128 µM | 0.544 µM | 0.247 µM | 0.061 µM |  |
| COc1ccc(/C=C\c2cc(OC)c(OC)c(OC)c2)cc1OC(=O)CCCCN1C(=O)CCC(N2Cc3c(N)cccc3C2=O)C1=O (centres undefined) | > 5 µM | > 5 µM | > 5 µM | > 5 µM | > 5 µM | > 5 µM |  |
| COc1ccc(/C=C\c2cc(OC)c(OC)c(OC)c2)cc1OC(=O)CCCCCOCCc1cn(CCCCCC(=O)Nc2cccc3c2C(=O)N(C2CCC(=O)NC2=O)C3=O)nn1 (centres undefined) | > 5 µM | > 5 µM | 1.99 µM | 1.76 µM | 2.3 µM | 1.79 µM |  |
| COc1ccc(/C=C\c2cc(OC)c(OC)c(OC)c2)cc1OC(=O)CCCCCOCCc1cn(CCCCC(=O)Nc2cccc3c2C(=O)N(C2CCC(=O)NC2=O)C3=O)nn1 (centres undefined) | > 5 µM | > 5 µM | 1.92 µM | 2.44 µM | 2.35 µM | 1.4 µM |  |
| COc1ccc(/C=C\c2cc(OC)c(OC)c(OC)c2)cc1OC(=O)CCCOCCc1cn(CCCC(=O)Nc2cccc3c2C(=O)N(C2CCC(=O)NC2=O)C3=O)nn1 (centres undefined) | > 5 µM | > 5 µM | 3.12 µM | 3.75 µM | 4.23 µM | 2.35 µM |  |
| COc1ccc(/C=C\c2cc(OC)c(OC)c(OC)c2)cc1OC(=O)CCCCCN1C(=O)CCC(N2Cc3c(N)cccc3C2=O)C1=O (centres undefined) | > 5 µM | > 5 µM | > 5 µM | > 5 µM | > 5 µM | > 5 µM |  |
| COc1ccc(/C=C\c2cc(OC)c(OC)c(OC)c2)cc1OCc1cn(CCCCC(=O)Nc2cccc3c2C(=O)N(C2CCC(=O)NC2=O)C3=O)nn1 (centres undefined) | 1.62 µM | > 5 µM | > 5 µM | > 5 µM | 4.06 µM | > 5 µM |  |
| COc1ccc(/C=C\c2cc(OC)c(OC)c(OC)c2)cc1OCc1cn(CCCCCC(=O)Nc2cccc3c2C(=O)N(C2CCC(=O)NC2=O)C3=O)nn1 (centres undefined) | > 5 µM | > 5 µM | > 5 µM | > 5 µM | > 5 µM | > 5 µM |  |
